{"source": "patent US20220401385A1", "about": "“Combination Therapy Based on PD-1 Signaling Inhibitors” (Kyoto University, priority 2019, published 2022)", "key": {"[1]": {"system": "CD44 high CD8+ T cells", "experiment": "PI and Annexin apoptosis assay, CD44 high cells", "assay_type": "cell-based, mice", "details": "in the presence of SPD 0.2 μM", "procedure": "FIG. 4 CD8^+ T cells were isolated from the spleen of mice without tumor inoculation, and further isolated into CD44^+ (CD44 high) and CD44^− (CD44 low) cell populations. a) CD44 low cells were simulated with CD3/CD28 antibody beads and SPD (0.2 μM). After 30 minutes, 1 hour, 2 hours and 72 hours, OCR was measured with a Seahorse analyzer. b) At the same time, total ATP production and glycolytic pathway-derived or mitochondrial activity-derived ATP production were calculated at 30-minute, 1-hour and 2-hour. c) CD44 low cells (2×10^5 cells) were stimulated with CD3/CD28 antibody beads and SPD (0.2 μM). After 24 hours, cell proliferation was examined by means of 3H uptake. d) Spare respiratory capacity (SRC) was calculated from the OCR measurement after 72 hours in a), and results with and without SPD were compared. e) CD44 low cells were stimulated with CD3/CD28 antibody beads and SPD (0.2 μM). After 24 hours, frequencies between apoptotic and viable cells were calculated by PI and Annexin staining. f-j) CD44 high cells were analyzed under the same conditions and by the same methods as described in a-e) above. […] All flow cytometry experiments were performed on FACS Canto II (BD Biosciences) and analyzed using FlowJo software (FLOWJO, LLC). […]"}, "[2]": {"system": "MC38 cells", "experiment": "MC38 mouse therapy model, tumor growth and survival", "assay_type": "in vivo, C57BL/6 mice", "procedure": "FIG. 1-1 a) CD8^+ T cells or CD3^+ T cells were isolated from mice, and 2×10^5 cells were stimulated with CD3/CD28 beads in 96-well U plates. After 24 hours and 48 hours, cells and culture supernatant were collected, followed by measurement of spermidine (SPD) concentration by mass spectrometry. […] Ten days after inoculation, PD-L1 antibody (2 mg/kg), PD-L1 antibody+SPD (2 mg/kg), or SPD alone was administered. Subsequently, PD-L1 antibody was administered 4 times at a regular interval of 5 days, and SPD was administered 8 times at a regular interval of 3 days. Tumor growth curve and survival curve are shown. c) Draining lymph nodes (DLNs) of mice were isolated 13 days after tumor inoculation, and stained with antibodies to CD8, CD44 and CD62L. The number of cells in draining lymph node (cells/DLN) in each treatment group is shown at the left side. After being gated, CD8^+ T cells were fractionated with CD44 and CD62L into P1 to P4 cell populations. Percentages and cell numbers of P1 to P4 in each treatment group are shown. d) Tumor was isolated 13 days after tumor inoculation and treated with collagenase. Percentages and numbers per mg tumor of tumor-infiltrating CD8^+ CD45.2^+ cells are shown. For statistical analysis, ANOVA was used. * p<0.05, ** p<0.01, *** p<0.001, **** p<0.0001.\nFIG. 8 MC38 cells (5×10^5) were intradermally inoculated into C57BL/6 mice. Ten days after inoculation, PD-L1 antibody (2 mg/kg), PD-L1 antibody+SPD (2 mg/kg) or PD-L1 antibody+SPM (6 mg/kg) was administered. Subsequently, […] was administered 4 times at a regular interval of 5 days, whereas SPD and SPM were administered 8 times at a regular interval of 3 days. Tumor growth curve is shown.\nMC38 cells (5×10^5) were intradermally injected on the right flank. Ten days after inoculation, PD-L1 antibody (1-111A; prepared by and stored at the Department of Immunology and Genomic Medicine, Graduate School of Medicine, Kyoto University) (Immunology Letters 84 (2002) 57-62) (2 mg/kg), PD-L1 antibody+SPD (2 mg/kg) or SPD alone was administered to mice. Subsequently, PD-L1 antibody was administered 4 times at a regular interval of 5 days, and SPD was administered 8 times at a regular interval of 3 days. Tumors were measured on every alternate day, and tumor volumes were calculated using the formula for typical ellipsoid, π×(length×breadth×height/6)."}, "[3]": {"system": "CD8+ T cells", "experiment": "Proliferation (3H uptake) of spleen CD8+ T cells of treated aged mice", "assay_type": "in vivo", "details": "56-week old mice; SPD combination group; 20 hours CD3/CD28, 3H uptake", "procedure": "(§1) FIG. 7 MC38 cells (5×10^5) were intradermally inoculated into 56-week old mice, which were treated along with the treatment schedule described in FIG. 1. PD-L1 antibody (2 mg/kg) and SPD (2 mg/kg) were used. a) Tumor growth curve and survival curve are shown. b) The frequency of CD8^+ T cells among lymphocytes infiltrating into tumor (in CD45^+ gate) and the absolute number of CD8^+ T cells per mg tumor 13 days after tumor inoculation are shown. c) CD8^+ T cells were isolated from spleen cells on the same schedule as b) and cultured for 20 hours under the stimulation with CD3/CD28. Cell proliferation was examined by means of ^3H uptake. d) CD8^+ T cells were isolated from draining lymph nodes on the same schedule as b) and glycolytic pathway-derived or mitochondrial metabolism-derived ATP production was calculated by Seahorse. e) Spare respiratory capacity (SRC) was also calculated in the experiment (d).\n(§2) It is known from mouse model experiments that the effect of PD-1 inhibitory antibody therapy decreases in aged mice due to their decreased immunity. […] CD8^+ T cells were isolated from draining lymph nodes 13 days after tumor inoculation and glycolytic pathway-derived or mitochondrial metabolism-derived ATP production was calculated by Seahorse. Spare respiratory capacity (SRC) was also calculated. […]"}, "[4]": {"system": "CD8+ T cells", "experiment": "Tumor-infiltrating CD8+ T cells in aged MC38 mice", "assay_type": "in vivo", "details": "56-week old mice; combination with SPD; 13 days after tumor inoculation", "procedure": "as §1, §2"}}, "note": "“Also recorded” adds a separate entry of the source."}
{"compound": "NCCCCNCCCN", "note": "[SPD, spermidine]", "values": [{"measurement": "apoptotic cells", "setting": "[1]", "value": "decreased"}, {"measurement": "viable cells", "setting": "[1]", "value": "increased; also recorded: significantly high"}, {"measurement": "antitumor effect of the PD-1 inhibitory antibody", "setting": "[2]; SPD (2 mg/kg) in combination with PD-L1 antibody (2 mg/kg), MC38 in C57BL/6 mice", "value": "synergistically improved; also recorded: greatly enhanced"}, {"measurement": "antitumor effect", "setting": "[2]; spermidine alone, in living bodies", "value": "no antitumor effect"}, {"measurement": "proliferative activation of spleen CD8+ T cells", "setting": "[3]", "value": "enhanced"}, {"measurement": "number of CD8+ T cells in lymphocytes infiltrating into tumor", "setting": "[4]", "value": "increase"}]}
